Results as given in patent US11939361B2, “Compositions of peptide inhibitors of Interleukin-23 receptor” (Janssen Pharmaceutica NV, priority 2020, dated 2024).

Assay: Rat PK Study 1: intraduodenal/intracolonic dosing with absorption enhancers
Type: in vivo, Sprague Dawley rats
Conditions: for AUC(0-inf) / AUC(0-t) / Cmax / Tmax: male, Sprague Dawley, plasma, 10 mg/kg
Description: In this Example, a screen of various absorption enhancers was assessed. […] The following absorption enhancers were tested: sodium caprate (NaCl0), sodium salcaprozate (SNAC), sucrose laureate, Peptelligence (proprietary technology from Enteris Pharma-undisclosed composition) and Labrasol. The solutions were dosed by intracolonic (IC) or intraduodenal (ID) injection to rats. […] NaCl0 gave the highest systemic exposure followed by Peptelligence, then Labrasol, then SNAC, and finally sucrose laureate. Accordingly, sodium caprate was determined to be a preferred absorption enhancer. […] Therefore, the systemic exposure is likely to be high enough to afford systemic activity.
The following absorption enhancers were evaluated: sodium caprate (NaCl0, 100 mg/kg), SNAC (100 mg/kg), sucrose laurate (100 mg/kg), Enteris A (proprietary technology of Enteris Pharma) (60 mg/kg), and Labrasol (100 mg/kg).

[1] = other: intracolonic, IC dose 10 mg/kg, Enteris A 60 mg/kg
[2] = other: intracolonic, IC dose 10 mg/kg, Labrasol 100 mg/kg
[3] = other: intracolonic, IC dose 10 mg/kg, NaC10 100 mg/kg
[4] = other: intracolonic, IC dose 10 mg/kg, SNAC 100 mg/kg
[5] = other: intracolonic, IC dose 10 mg/kg, Sucrose laurate 100 mg/kg
[6] = other: intracolonic, IC dose 10 mg/kg, no absorption enhancer
[7] = other: intraduodenal, ID dose 10 mg/kg, Enteris A 60 mg/kg
[8] = other: intraduodenal, ID dose 10 mg/kg, Labrasol 100 mg/kg
[9] = other: intraduodenal, ID dose 10 mg/kg, NaC10 100 mg/kg
[10] = other: intraduodenal, ID dose 10 mg/kg, SNAC 100 mg/kg
[11] = other: intraduodenal, ID dose 10 mg/kg, Sucrose laurate 100 mg/kg
[12] = other: intraduodenal, ID dose 10 mg/kg, no absorption enhancer

Work on `CC(=O)NCCCC[C@@H]1NC(=O)[C@H](Cc2c[nH]c3c(C)cccc23)NC(=O)[C@H]([C@@H](C)O)NC(=O)[C@H](CC(N)=O)NC(=O)[C@@H](NC(C)=O)C(C)(C)SSC(C)(C)[C@@H](C(=O)N[C@@H](Cc2ccc(OCCN)cc2)C(=O)N[C@@H](Cc2ccc3ccccc3c2)C(=O)NC2(C(=O)N[C@@H](CCC(=O)O)C(=O)N[C@@H](CC(N)=O)C(=O)N[C@@H](Cc3cccnc3)C(=O)N(C)CC(N)=O)CCOCC2)NC1=O` [SEQ ID NO: 1, Ac-[Pen]*—N-T-[W(7-Me)]-[Lys(Ac)]-[Pen]*-Phe[4-(2-aminoethoxy)]-[2-Nal]-[THP]-E-N-[3-Pal]-Sarc-NH2] yielded a Fabs (IC dose 10 mg/kg, Enteris A 60 mg/kg) of 2.98%, a Fabs (IC dose 10 mg/kg, Labrasol 100 mg/kg) of 5.82% and a Fabs (IC dose 10 mg/kg, NaC10 100 mg/kg) of 6.36%. The Fabs (IC dose 10 mg/kg, SNAC 100 mg/kg) was 1.64%, the Fabs (IC dose 10 mg/kg, Sucrose laurate 100 mg/kg) was 0.939% and the Fabs (IC dose 10 mg/kg, no absorption enhancer) was 0.0531%. For the same molecule, the Fabs (ID dose 10 mg/kg, Enteris A 60 mg/kg) was 5.06%, the Fabs (ID dose 10 mg/kg, Labrasol 100 mg/kg) was 3.26% and the Fabs (ID dose 10 mg/kg, NaC10 100 mg/kg) was 6.24%. It also gave a Fabs (ID dose 10 mg/kg, SNAC 100 mg/kg) of 1.13%, a Fabs (ID dose 10 mg/kg, Sucrose laurate 100 mg/kg) of 0.764% and a Fabs (ID dose 10 mg/kg, no absorption enhancer) of 0.360%. It also gave an AUC(0-inf) [1] of 567 ng·h/mL, an AUC(0-t) [1] of 561 ng·h/mL and a Cmax [1] of 626 ng/mL. It also gave a Tmax [1] of 15 min, an AUC(0-inf) [2] of 1110 ng·h/mL and an AUC(0-t) [2] of 1100 ng·h/mL. It also gave a Cmax [2] of 976 ng/mL, a Tmax [2] of 15 min and an AUC(0-inf) [3] of 1210 ng·h/mL. The AUC(0-t) [3] was 1210 ng·h/mL, the Cmax [3] was 1030 ng/mL and the Tmax [3] was 20 min. The AUC(0-inf) [4] was 312 ng·h/mL, the AUC(0-t) [4] was 309 ng·h/mL and the Cmax [4] was 309 ng/mL. For the same molecule, the Tmax [4] was 20 min, the AUC(0-inf) [5] was 179 ng·h/mL and the AUC(0-t) [5] was 176 ng·h/mL. For the same molecule, the Cmax [5] was 191 ng/mL, the Tmax [5] was 15 min and the Cmax [6] was 4.99 ng/mL. The Tmax [6] was 35 min, the AUC(0-inf) [7] was 964 ng·h/mL and the AUC(0-t) [7] was 958 ng·h/mL. The Cmax [7] was 988 ng/mL, the Tmax [7] was 15 min and the AUC(0-inf) [8] was 621 ng·h/mL. It also gave an AUC(0-t) [8] of 617 ng·h/mL, a Cmax [8] of 625 ng/mL and a Tmax [8] of 15 min. It also gave an AUC(0-inf) [9] of 1190 ng·h/mL, an AUC(0-t) [9] of 1190 ng·h/mL and a Cmax [9] of 1220 ng/mL. For the same molecule, the Tmax [9] was 15 min, the AUC(0-inf) [10] was 215 ng·h/mL and the AUC(0-t) [10] was 210 ng·h/mL. It also gave a Cmax [10] of 209 ng/mL, a Tmax [10] of 15 min and an AUC(0-inf) [11] of 145 ng·h/mL. The AUC(0-t) [11] was 141 ng·h/mL, the Cmax [11] was 107 ng/mL and the Tmax [11] was 15 min. It also gave an AUC(0-inf) [12] of 68.6 ng·h/mL, a Cmax [12] of 23.1 ng/mL and a Tmax [12] of 40 min. For the same molecule, the AUC(0-t) (other: intraduodenal, ID dose 10 mg/kg, no absorption enhancer, last time point 2, 4, 6, 8, or 24 hours) was 62 ng·h/mL.
